Type in all cases: functional, cell-based
Data set [1] addresses T1, ATP-dependent translocase ABCB1 (Homo sapiens, UniProt P08183). Description: TP_TRANSPORTER: inhibition of Vinblastine transepithelial transport (basal to apical) (Vinblastine: 2 uM, Pluronic L61: 0.04%) in MDR1-expressing LLC-PK1 cells. Particulars: pig.
The target in data set [2] is ATP-binding cassette sub-family C member 2 (Homo sapiens, UniProt Q92887). Put plainly: TP_TRANSPORTER: inhibition of Vinblastine transepithelial transport (basal to apical)(Vinblastine: 2 uM, Pluronic L61: 0.1%) in MRP2-expressing MDCKII cells. Particulars: dog, mdck-ii.
Data set [3] addresses T1, ATP-dependent translocase ABCB1. Put plainly: TP_TRANSPORTER: inhibition of Daunorubicin transepithelial transport (basal to apical)(Daunorubicin: 2 uM, V-104: 15 uM) in MDR1-expressing MDCKII cells. Particulars: dog, mdck-ii.

For two molecules, Activity results are on record in ChEMBL document CHEMBL2073746, “Inhibitory effect of the reversal agents V-104, GF120918 and Pluronic L61 on MDR1 Pgp-, MRP1- and MRP2-mediated transport” (Br J Cancer, 2000).

T1 sequence (P08183 whole entry): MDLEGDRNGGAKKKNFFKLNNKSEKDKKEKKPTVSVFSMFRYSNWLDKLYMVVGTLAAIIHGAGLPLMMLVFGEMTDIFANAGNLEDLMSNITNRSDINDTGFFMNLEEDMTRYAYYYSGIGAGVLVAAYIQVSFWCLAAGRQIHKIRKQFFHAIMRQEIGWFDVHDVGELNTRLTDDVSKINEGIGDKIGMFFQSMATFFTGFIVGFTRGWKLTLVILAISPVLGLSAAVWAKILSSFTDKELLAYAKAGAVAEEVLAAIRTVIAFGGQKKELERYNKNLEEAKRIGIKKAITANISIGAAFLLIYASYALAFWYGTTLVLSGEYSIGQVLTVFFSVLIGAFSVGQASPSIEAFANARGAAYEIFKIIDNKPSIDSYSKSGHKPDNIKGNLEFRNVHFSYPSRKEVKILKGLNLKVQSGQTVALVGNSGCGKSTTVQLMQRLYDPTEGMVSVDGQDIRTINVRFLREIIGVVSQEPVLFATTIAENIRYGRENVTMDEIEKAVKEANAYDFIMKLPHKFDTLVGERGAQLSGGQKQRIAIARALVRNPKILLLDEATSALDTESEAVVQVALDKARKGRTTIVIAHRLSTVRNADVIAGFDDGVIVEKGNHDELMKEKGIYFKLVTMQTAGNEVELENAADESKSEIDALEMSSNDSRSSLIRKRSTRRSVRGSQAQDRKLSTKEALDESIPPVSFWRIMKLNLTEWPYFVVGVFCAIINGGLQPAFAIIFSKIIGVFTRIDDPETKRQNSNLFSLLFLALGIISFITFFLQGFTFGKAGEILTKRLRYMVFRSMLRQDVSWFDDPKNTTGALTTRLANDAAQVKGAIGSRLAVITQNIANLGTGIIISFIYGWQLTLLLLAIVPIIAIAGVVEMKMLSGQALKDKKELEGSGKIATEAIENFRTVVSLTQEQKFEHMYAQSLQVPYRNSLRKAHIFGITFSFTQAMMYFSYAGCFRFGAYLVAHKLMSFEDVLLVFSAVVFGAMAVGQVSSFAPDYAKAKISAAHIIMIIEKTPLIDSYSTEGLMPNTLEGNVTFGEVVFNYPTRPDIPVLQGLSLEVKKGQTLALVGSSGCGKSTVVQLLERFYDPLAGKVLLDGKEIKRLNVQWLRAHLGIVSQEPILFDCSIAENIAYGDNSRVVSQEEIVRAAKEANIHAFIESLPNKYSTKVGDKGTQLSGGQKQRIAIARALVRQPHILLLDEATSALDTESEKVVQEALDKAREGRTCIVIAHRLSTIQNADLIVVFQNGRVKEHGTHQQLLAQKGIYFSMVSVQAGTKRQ
Sequence of ATP-binding cassette sub-family C member 2 (Q92887 whole entry): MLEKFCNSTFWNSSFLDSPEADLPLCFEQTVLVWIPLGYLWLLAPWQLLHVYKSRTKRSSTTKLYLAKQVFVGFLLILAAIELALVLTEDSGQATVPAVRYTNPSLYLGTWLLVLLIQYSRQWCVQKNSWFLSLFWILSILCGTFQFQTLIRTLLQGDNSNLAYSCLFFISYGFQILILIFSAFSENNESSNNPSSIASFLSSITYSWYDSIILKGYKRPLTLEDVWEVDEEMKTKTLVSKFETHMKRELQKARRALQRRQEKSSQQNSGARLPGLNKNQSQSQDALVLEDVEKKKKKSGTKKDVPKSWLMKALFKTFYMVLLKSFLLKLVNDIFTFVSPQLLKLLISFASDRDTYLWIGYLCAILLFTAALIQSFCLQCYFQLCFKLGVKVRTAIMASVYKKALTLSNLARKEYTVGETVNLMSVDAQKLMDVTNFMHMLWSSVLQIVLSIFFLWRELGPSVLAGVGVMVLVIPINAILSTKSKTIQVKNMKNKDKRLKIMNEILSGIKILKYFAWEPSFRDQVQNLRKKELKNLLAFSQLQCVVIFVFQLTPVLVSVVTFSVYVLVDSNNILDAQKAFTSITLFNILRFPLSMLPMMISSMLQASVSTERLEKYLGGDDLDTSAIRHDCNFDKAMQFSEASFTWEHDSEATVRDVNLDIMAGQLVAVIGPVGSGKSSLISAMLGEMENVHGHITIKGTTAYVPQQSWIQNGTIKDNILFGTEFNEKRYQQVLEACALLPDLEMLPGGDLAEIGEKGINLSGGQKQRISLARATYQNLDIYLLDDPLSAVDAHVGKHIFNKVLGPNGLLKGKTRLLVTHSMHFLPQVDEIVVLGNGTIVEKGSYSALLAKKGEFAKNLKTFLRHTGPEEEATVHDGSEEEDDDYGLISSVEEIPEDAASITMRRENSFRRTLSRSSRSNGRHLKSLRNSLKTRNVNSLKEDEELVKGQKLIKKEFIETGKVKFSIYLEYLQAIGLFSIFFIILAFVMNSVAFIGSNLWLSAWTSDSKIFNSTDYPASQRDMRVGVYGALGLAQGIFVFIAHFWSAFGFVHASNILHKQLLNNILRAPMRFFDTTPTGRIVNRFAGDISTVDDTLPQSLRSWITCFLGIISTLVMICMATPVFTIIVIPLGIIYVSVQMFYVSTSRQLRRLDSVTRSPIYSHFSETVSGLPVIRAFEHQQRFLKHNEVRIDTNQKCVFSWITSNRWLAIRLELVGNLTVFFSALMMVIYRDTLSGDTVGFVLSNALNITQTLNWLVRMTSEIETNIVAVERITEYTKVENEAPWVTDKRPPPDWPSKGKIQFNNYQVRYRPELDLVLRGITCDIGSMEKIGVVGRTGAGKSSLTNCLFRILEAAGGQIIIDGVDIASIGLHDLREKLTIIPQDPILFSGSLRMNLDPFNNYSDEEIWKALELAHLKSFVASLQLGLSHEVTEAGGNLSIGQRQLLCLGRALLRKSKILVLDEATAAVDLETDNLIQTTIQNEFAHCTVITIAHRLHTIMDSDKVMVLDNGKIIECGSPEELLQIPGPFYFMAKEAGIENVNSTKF

Consider PLURONIC L61, for which the Activity result in data set [1] and in data set [2] was “inhibitor [+]” in each case. For the molecule `COc1cc(C(=O)C(=O)N2CCCC[C@H]2C(=O)O)cc(OC)c1OC`, the Activity entry in data set [3] is “inhibitor [+]”.
